Test results taken from US11285142B2, “Compositions and methods for identifying and treating dystonia disorders” (DUKE UNIVERSITY, priority 2015, dated 2022).
“Also recorded” adds a separate entry of the source. Structures can show the parent of a compound that is named as a salt. Where two headings read alike, the source gives them in different places.

Experiments:
[1] = tested on: Flp-In T-REx 293 cells expressing delta-E Torsin1a; assay: Cytotoxicity (cell count, cellular morphology) in the Torsin1a assay cell line; type: cell-based, human; conditions: for ΔE TorsinA Mislocalization Assay Cytotoxicity EC50: Table 5; for Cytotox CC-v2 (dose response Curve Class) / Cytotox Efficacy / Cytotox Max Resp / AC50: Table 6; for toxicity (cell count, cellular morphology; in words): at effective concentrations; for AC50: read-out: Cytotox AC50
Protocol: (§1) In order to test this model directly, the delta-E Torsin1a cell line was treated with compounds targeting the eIF2-alpha signaling pathway (FIG. 2). […] The following day, serial drug dilutions were prepared at 2× final concentration in assay media containing 10 μg/mL tetracycline and 30 μL of the drug/tetracycline mixture was added to the appropriate wells, while control wells received 30 μL of assay media alone or assay media+10 μg/mL tetracycline (final tetracycline concentration for all wells except negative controls: 5 μg/mL). Cells were then incubated at 37° C./5% CO^2 for 48 hours and fixed, permeabilized, Hoechst stained, and imaged as described above. The range of the Torsin1a localization effect was normalized to the percentage of cells with puncta in vehicle-treated delta-E cell line as the maximum and that in WT cell line as the minimum (FIG. 2, panels c-h). Cell count and EGFP-Torsin1a expression were normalized to their respective values in the vehicle-treated delta-E cell line as the maximum. All dose response data are the average of 4 independent experiments per dose. Untreated control data used for normalization are the average of 24 independent experiments.
(§2) Efficacy is calculated as the magnitude of the pathology correction relative to the mutant Torsin1a pathology. For example an efficacy=−100% would be equivalent to the WT TorsinA phenotype, and 0% would be equivalent to the Mutant TorsinA phenotype. CCv2 refers to the dose response Curve Class annotation, and AC refers to Active Concentration.

[2] = tested on: luciferase secretion; assay: C.Luc. Secretion Assay (luciferase secretion, secretory deficits); type: cell-based; conditions: for C.Luc. Secretion Assay Secretion EC50 / EC50 / Emax: Table 5; for Emax: read-out: C.Luc. Secretion Assay Secretion Max Efficacy; for correction of secretory deficits (in words): orthogonal assays
Protocol: We tested each shRNA for its ability to rescue a previously described defect in luciferase secretion. Chen, P. et al. (2010) Hum. Mol. Genet. 19, 3502-15; Cao, S. et al. (2010) Dis. Model. Mech. 3, 386-96; Barrows, N. J., et al., (2010)J. Biomol. Screen. 15, 735-47.) DYT1 patient data were obtained from 4 independent patient-derived lines and WT data (black bar) from 3 normal healthy control lines. Each line was tested in 5 independent experiments that included 4 technical replicates each (with the exception of SCD data from 3 independent experiments).
(Cao, S. et al. (2010) Dis. Model. Mech. 3, 386-96.) Subsequent testing of additional HIV protease inhibitors supported the activity of this class of compounds and generated favorable structure-activity relationship (SAR) data from which to design improved compounds (Tables 5 and 6). The results with a subset of compounds were also observed in a Luciferase secretion assay (Tables 5 and 6).

[3] = tested on: delta-E Torsin1a localization in Flp-In T-REx 293 cells expressing EGFP-delta-E Torsin1a; assay: delta-E Torsin1a mis-localization assay (high-content imaging, % cells with EGFP puncta); type: cell-based, human; conditions: for ΔE TorsinA Mislocalization Assay Localization EC50 / EC50 / Emax: Table 5; for effect on delta-E Torsin1a localization (in words): delta-E cell line, dose response; for % pathology CC-v2 (dose response Curve Class) / AC50 / % pathology Max Resp / % pathology Efficacy: Table 6; for AC50: AC = Active Concentration, read-out: % pathology AC50; for % pathology Max Resp / % pathology Efficacy: normalized scale; for % pathology Max Resp: WT-TorsinA line 0%, DYT1 mutant line 100% pathology; for % pathology Efficacy: −100% = WT TorsinA phenotype, 0% = Mutant TorsinA phenotype; for EC50: read-out: ΔE TorsinA Mislocalization Assay Localization EC50; for Emax: read-out: ΔE TorsinA Mislocalization Assay Localization Max Efficacy
Protocol: To limit variation in expression levels associated with random integration or transient expression, single copies of either WT or delta-E human TOR1A cDNAs with N-terminal EGFP fusions were inserted at the FRT site in Flp-In™ T-Rex™ 293 cells (Thermo Fisher Scientific #R780-07) via flippase recombinase-mediated cassette exchange according to the manufacturer's recommended protocols.
The cells were maintained at 37° C./5% CO2. All experiments were performed on cells with fewer than 5 passages.
Torsin1a expression was also controlled by tetracycline induction to avoid selective pressure modifying the cellular phenotypes. […] The mutant phenotype was measured as the percentage of cells with one or more EGFP puncta using automated high-content imaging analysis (see infra).
The image analysis algorithm was developed using the Cellomics ArrayScan V CompartmentAnalysisV2 protocol. Hoechst's nuclear staining (Ch1: excitation 350 nm; emission 461 nm) was used for focusing and for cell identification by nuclear size, shape, and intensity. […] Detected cells were gated according to nuclear area, length-to-width ratio, and perimeter-to-area ratio. For the purpose of analysis, cell bodies were defined by a radius of 10 μm from the outer edge of the defined nucleus. Overlapping cells were automatically segmented according to the Cellomics ArrayScanV CompartmentAnalysisV2 object segmentation feature. EGFP fluorescence (Ch2: excitation 488 nm; emission 509 nm) was used for puncta detection. […] Torsin1a puncta were identified using the spot detection feature of the Compartmental AnalysisV2 protocol. The percentage of cells containing one or more puncta was used as the primary metric in this assay.
as §1

[4] = Cytotoxicity (cell count, cellular morphology) in the Torsin1a assay cell line; type: cell-based, human; conditions: human; for AC50: Table 6, read-out: Cytotox AC50; for EC50 at 48 h: Flp-In T-REx 293 cells inducibly expressing delta-E Torsin1a, Table 5, read-out: ΔE TorsinA Mislocalization Assay Cytotoxicity EC50
Protocol: as §1, §2

## CC(C)CN(C[C@@H](O)[C@H](Cc1ccccc1)NC(=O)O[C@H]1CCOC1)S(=O)(=O)c1ccc(N)cc1 [Amprenavir]
[1]
  ΔE TorsinA Mislocalization Assay Cytotoxicity EC50: None
  Cytotox CC-v2 (dose response Curve Class): 4
[2]
  C.Luc. Secretion Assay Secretion EC50: No Activity
[3]
  ΔE TorsinA Mislocalization Assay Localization EC50: No Activity

## COC(=O)N[C@H](C(=O)N[C@@H](Cc1ccccc1)[C@@H](O)CN(Cc1ccc(-c2ccccn2)cc1)NC(=O)[C@@H](NC(=O)OC)C(C)(C)C)C(C)(C)C [Atazanavir]
[1]
  ΔE TorsinA Mislocalization Assay Cytotoxicity EC50: None
  Cytotox CC-v2 (dose response Curve Class): 4
[2]
  C.Luc. Secretion Assay Secretion EC50: No Activity
[3]
  ΔE TorsinA Mislocalization Assay Localization EC50: No Activity

## CCN(CC)CCC(=O)N1N=C(c2c(-c3ccccc3)c3cc(Br)ccc3[nH]c2=O)CC1c1ccc(Br)cc1 (stereo not shown) [CCT020312]
[1]
  toxicity (cell count, cellular morphology; in words): highly toxic at effective concentrations
[3]
  effect on delta-E Torsin1a localization (in words): dose-dependent reduction

## C[C@H](NC(=O)Cc1cc(F)cc(F)c1)C(=O)N[C@H](C(=O)OC(C)(C)C)c1ccccc1 [DAPT]
[3]
  effect on delta-E Torsin1a localization (in words): no effect

## CC(C)CN(C[C@@H](O)[C@H](Cc1ccccc1)NC(=O)O[C@H]1CO[C@H]2OCC[C@H]21)S(=O)(=O)c1ccc(N)cc1 [Darunavir]
[2]
  C.Luc. Secretion Assay Secretion EC50: No Activity
[3]
  ΔE TorsinA Mislocalization Assay Localization EC50: No Activity

## Cc1cccc(C)c1OCC(=O)NC(CCC(Cc1ccccc1)NC(=O)C(C(C)C)N1CCCNC1=O)Cc1ccccc1 (stereo not shown) [Des-hydroxy Lopinavir]
[1]
  Cytotox CC-v2 (dose response Curve Class): −2.2
  Cytotox Efficacy: −77.66
  Cytotox Max Resp: −66.67
  AC50: 20.9 µM
[3]
  % pathology CC-v2 (dose response Curve Class): −3
  AC50: 8.33 µM
  % pathology Max Resp: −33.96%
  % pathology Efficacy: −82.44%

## CC(C)(C)NC(=O)[C@@H]1CN(Cc2cccnc2)CCN1C[C@@H](O)C[C@@H](Cc1ccccc1)C(=O)N[C@H]1c2ccccc2C[C@H]1O [Indinavir sulfate]
[4]
  AC50: 37.2 µM
[1]
  Cytotox CC-v2 (dose response Curve Class): −3
  Cytotox Efficacy: −80.64
  Cytotox Max Resp: −67.80
[3]; Homo sapiens, Flp-In-T-REx-293
  AC50: 29.6 µM
[3]
  % pathology Max Resp: −97.76%
  % pathology Efficacy: −114.60%

## CC(C)(C)NC(=O)[C@@H]1CN(Cc2cccnc2)CCN1C[C@@H](O)C[C@@H](Cc1ccccc1)C(=O)N[C@H]1c2ccccc2C[C@H]1O [Indinavir, indinavir]
[4]
  EC50 at 48 h: 35.2 µM
[1]
  toxicity (cell count, cellular morphology; in words): no cellular toxicity observed at effective doses
[2]
  C.Luc. Secretion Assay Secretion EC50: No Activity
[3]; Homo sapiens, Flp-In-T-REx-293
  EC50: 26.5 µM
  Emax: 114%
[3]
  effect on delta-E Torsin1a localization (in words): corrected TorsinA localization in a dose-dependent fashion

## CS(=O)(=O)O.Cc1c(O)cccc1C(=O)N[C@@H](CSc1ccccc1)[C@H](O)CN1C[C@H]2CCCC[C@H]2C[C@H]1C(=O)NC(C)(C)C.O [Nelfinavir mesylae hydrate]
[1]
  Cytotox CC-v2 (dose response Curve Class): −1.1
  Cytotox Efficacy: −98.05
  Cytotox Max Resp: −95.64
  AC50: 6.05 µM
[3]
  % pathology CC-v2 (dose response Curve Class): −1.1
  AC50: 2.7 µM
  % pathology Max Resp: −92.46%
  % pathology Efficacy: −75.26%

## Cc1c(O)cccc1C(=O)N[C@@H](CSc1ccccc1)[C@H](O)CN1C[C@H]2CCCC[C@H]2C[C@H]1C(=O)NC(C)(C)C [Nelfinavir, nelfinavir]
[4]
  EC50 at 48 h: 6.05 µM
[1]
  toxicity (cell count, cellular morphology; in words): no cellular toxicity observed at effective doses
[2]
  C.Luc. Secretion Assay Secretion EC50: No Activity
[3]; Homo sapiens, Flp-In-T-REx-293
  EC50: 3.49 µM
  Emax: 80%
[3]
  effect on delta-E Torsin1a localization (in words): corrected TorsinA localization in a dose-dependent fashion

## CC(C)c1nc(CN(C)C(=O)N[C@H](C(=O)N[C@@H](Cc2ccccc2)C[C@H](O)[C@H](Cc2ccccc2)NC(=O)OCc2cncs2)C(C)C)cs1 [Ritonavir, ritonavir]
[1]
  Cytotox CC-v2 (dose response Curve Class): 4
  toxicity (cell count, cellular morphology; in words): no cellular toxicity observed at effective doses
[2]
  EC50: 3.72 µM
  Emax: 49%
  correction of secretory deficits (in words): corrected secretory deficits
[3]; Homo sapiens, Flp-In-T-REx-293
  EC50: 4.11 µM
  Emax: 87%
  AC50: 2.96 µM
[3]
  % pathology Max Resp: −82.60%
  % pathology Efficacy: −92.96%
  effect on delta-E Torsin1a localization (in words): corrected TorsinA localization in a dose-dependent fashion; also recorded: restored

## CC(C)(C)NC(=O)[C@@H]1C[C@@H]2CCCC[C@@H]2CN1C[C@@H](O)[C@H](Cc1ccccc1)NC(=O)[C@H](CC(N)=O)NC(=O)c1ccc2ccccc2n1 [Saquinavir mesylate]
[4]
  AC50: 20.9 µM
[3]; Homo sapiens, Flp-In-T-REx-293
  AC50: 8.33 µM
[3]
  % pathology Max Resp: −84.62%
  % pathology Efficacy: −85.98%

## CC(C)(C)NC(=O)[C@@H]1C[C@@H]2CCCC[C@@H]2CN1C[C@@H](O)[C@H](Cc1ccccc1)NC(=O)[C@H](CC(N)=O)NC(=O)c1ccc2ccccc2n1 [Saquinavir, saquinavir]
[4]
  EC50 at 48 h: 23.6 µM
[2]
  EC50: 8.09 µM
  Emax: 34%
  correction of secretory deficits (in words): corrected secretory deficits
[3]; Homo sapiens, Flp-In-T-REx-293
  EC50: 9.41 µM
  Emax: 88%
[3]
  effect on delta-E Torsin1a localization (in words): corrected TorsinA localization in a dose-dependent fashion

## Cc1c(O)cccc1C(=O)N[C@@H](CSc1ccccc1)[C@H](O)CN1C[C@H]2CCCC[C@H]2C[C@H]1C(=O)NC(C)(C)C [Viracept]
[4]
  AC50: 10.5 µM
[1]
  Cytotox CC-v2 (dose response Curve Class): −1.1
  Cytotox Efficacy: −106.32
  Cytotox Max Resp: −97.72
[3]; Homo sapiens, Flp-In-T-REx-293
  AC50: 5.26 µM
[3]
  % pathology Max Resp: −94.06%
  % pathology Efficacy: −119.39%

## N=C(N)N/N=C/c1c(Cl)cccc1Cl [guanabenz]
[3]
  effect on delta-E Torsin1a localization (in words): no effect

## CCCC(CCC)C(=O)O [valproic acid]
[3]
  effect on delta-E Torsin1a localization (in words): no effect
